Reference: ChEMBL document CHEMBL3430912, “GSK Tres Cantos Anti-Kinetoplastid Screening (TCAKS) Data”

Key:
[1] = test system: Trypanosoma brucei brucei; experiment: GSK_TCAKS: pIC50 Trypanosoma brucei viability assay using fluorescence intensity. Assay plates (1536-well) were prepared by dispensing 25nL of compound solution per well using an Echo acoustic dispenser (Labcyte).; assay type: functional, organism-based; conditions: Lister 427, 2 h
Leishmania donovani [2] = experiment: GSK_TCAKS: pIC50 Leishmania donovani viability assay using fluorescence intensity. Assay plates (1536-well) were prepared by adding 30nL per well of compound. For single shot assay, the final compound concentration was 5uM. […] Briefly, eGFP LdBOB axenic amastigotes were harvested, fixed and counted in a CASY cell counter (Roche-Applied Science). A final concentration of 1.5 * 10^5 cells per well were prepared in amastigote media containing 500 U/mL penicillin/streptomycin (Invitrogen) and 6uL was dispensed to each experimental well using a Multidrop Combi dispenser (Thermo Scientific). 6uL of assay media was dispensed to control columns used as reference for 100% compound response. Following incubation for 72 h at 37C, 5% CO2, 2 uL of resazurin was added to each well at a final concentration of 0.5 mM in phosphate buffered saline (PBS) with IGEPAL (Sigma-Aldrich), 0.05% (v/v).; assay type: functional, organism-based
Leishmania donovani [3] = experiment: GSK_TCAKS: pIC50 Leishmania donovani Imaging: Infected Macrophages. Assay plates (384-well) were prepared by adding 250nL of compound to each well. For single shot assay, the final compound concentration was 5 uM. […] Automated image analysis was performed with a script developed on Acapella High Content Imaging and Analysis Software (PerkinElmer). Output: Percent of infected macrophage cells were reported for each well.; assay type: functional, organism-based, Homo sapiens; conditions: THP-1
[4] = target: Sterol 14-alpha demethylase (Trypanosoma cruzi (strain CL Brener), UniProt Q7Z1V1); experiment: GSK_TCAKS: pIC50 CYP51 from Trypanosoma cruzi.; assay type: functional
Chain of Sterol 14-alpha demethylase (Q7Z1V1 whole entry): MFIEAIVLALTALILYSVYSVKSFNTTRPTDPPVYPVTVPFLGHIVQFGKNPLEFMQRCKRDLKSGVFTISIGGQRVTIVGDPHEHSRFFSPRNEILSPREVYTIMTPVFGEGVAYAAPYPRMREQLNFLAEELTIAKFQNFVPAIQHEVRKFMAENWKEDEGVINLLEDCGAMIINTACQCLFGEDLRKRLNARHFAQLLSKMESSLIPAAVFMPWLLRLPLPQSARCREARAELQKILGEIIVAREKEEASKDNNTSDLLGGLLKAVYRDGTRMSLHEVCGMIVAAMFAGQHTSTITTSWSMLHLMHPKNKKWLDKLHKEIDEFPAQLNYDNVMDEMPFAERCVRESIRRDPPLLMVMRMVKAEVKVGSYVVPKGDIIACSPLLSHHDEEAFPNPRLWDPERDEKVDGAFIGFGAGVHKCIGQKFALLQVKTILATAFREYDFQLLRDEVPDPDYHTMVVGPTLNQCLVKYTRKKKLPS

Leishmania donovani [5] = experiment: GSK_TCAKS: pIC50 Leishmania donovani Imaging: Amastigotes/Macrophages. Assay plates (384-well) were prepared by adding 250nL of compound to each well. For single shot assay, the final compound concentration was 5 uM. […] Automated image analysis was performed with a script developed on Acapella High Content Imaging and Analysis Software (PerkinElmer). Output: Average number of amastigotes per macrophage cell were reported for each well.; assay type: functional, organism-based, Homo sapiens; conditions: THP-1
Trypanosoma cruzi [6] = experiment: GSK_TCAKS: pIC50 Trypanosoma cruzi viability assay using beta-GAL activity. This assay was run at single shot at 5uM compound concentration per well. The biological reagents consisted of NIH-3T3 host cells and trypomastigotes parasitic cells; both cell types were set to a 3.3 * 10^5 cells/mL dilution in assay DMEM by means of a CASY cell counter device using a 60um capillary. 6 uL of the mixture were dispensed per well (about 1 * 10^3 host-cells and 1 * 10^3 parasites) with a Multidrop Combi dispenser. […] In all wells, the percentage of DMSO never exceeded 0.5%. Plates incubated for four days at 37C, 5% CO2. The substrate used for the assay fluorescence intensity (FLINT) readout was resorufin-beta-D-galactopiranoside (Sigma-Aldrich) at 5uM per well. It was diluted in PBS supplemented with the soft detergent Igepal (Fluka).; assay type: functional, organism-based, Mus musculus; conditions: Tulahuen, NIH3T3
Trypanosoma cruzi [7] = experiment: (§1) GSK_TCAKS: pIC50 H2C9 Imaging: H9c2 Host Cardiomyocytes. […] Cells were then washed once with PBS before infection. T. cruzi trypomastigotes, collected at days 5 to 8 after infection from LLC-MK2 parasite infected cultures, were allowed to swim out for 4h at 37C from a centrifuged pellet (2,500 rpm/10 min/room temperature). Trypomastigotes were then collected and counted in a CASY Cell Counter. Trypomastigotes, in supplemented DMEM, were added to H9c2 cultures in a multiplicity of infection of 1 and incubated for 18 h. Cells were washed once with PBS before incubation of the infected H9c2 monolayer with trypsin (Life-Technologies) to detach cells from the flask. Cells were counted in a CASY Cell Counter using a 150 um capillary and their density set at 5 * 10^4 cells per mL in supplemented assay DMEM. Infected H9c2 were dispensed into 384-well poly-lysine coated assay plates at 50uL per well using a Multidrop Combi dispenser. After seeding them, the plates were incubated at 37C, 5% CO2 for 72h. Cultures were then fixed and stained by addition of 50 uL of a solution containing 8% formaldehyde and 4 uM DRAQ5 DNA dye (BioStatus, UK) per well. […] Five images were collected per well for reliable statistical analysis. Automated image analysis was performed with a script developed on Acapella High Content Imaging and Analysis Software (PerkinElmer). Output: Number of H9c2 Host Cardiomyocytes nuclei to determine drug-related cytotoxicity.; assay type: functional, organism-based, Rattus norvegicus; conditions: H9c2, 4 h
[8] = GSK_TCAKS: pIC50 HepG2 human cell line viability assay using luminiscence. […] Seeding density was checked to ensure that new mono-layers were not more than 50% confluent at the time of harvesting. Cell suspension was added to 500 mL of the same medium at a final density of 1.2 * 10^5 cells/mL. This cell suspension was dispensed (25 uL, 3000 cells per well) into 384-well clear-bottom plates using a Multidrop Combi dispenser. Prior to addition of the cell suspension, the screening compounds (250 nL) were pre-dispensed into the plates with an Echo liquid handler. Plates were incubated for 48 h at 37C, 5% CO2. After incubation, plates equilibrated at room temperature for 30 min before proceeding to develop the luminescent signal. The signal developer, CellTiter-Glo Reagent, was allowed to equilibrate at room temperature for 30 min and added to the plates (25uL per well) using a Multidrop Combi dispenser. Plates were left for 10 min at room temperature for stabilization and then read using a ViewLux.; assay type: toxicity, cell-based
Trypanosoma cruzi [9] = experiment: as §1, with “Trypanosoma cruzi” for “H2C9”, “Amastigotes/Cell.” for “H9c2 Host Cardiomyocytes.”, “number” for “Number”, “amastigotes per cell as infection level measurement.” for “H9c2 Host Cardiomyocytes nuclei to determine drug-related cytotoxicity.”; assay type: functional, organism-based, Rattus norvegicus; conditions: H9c2, 4 h
Trypanosoma cruzi [10] = experiment: as §1, with “Trypanosoma cruzi” for “H2C9”, “Infected Cells.” for “H9c2 Host Cardiomyocytes.”, “percentage” for “Number”, “infected cells per well as a second infection marker.” for “H9c2 Host Cardiomyocytes nuclei to determine drug-related cytotoxicity.”; assay type: functional, organism-based, Rattus norvegicus; conditions: H9c2, 4 h
Leishmania donovani [11] = experiment: GSK_TCAKS: pIC50 Leishmania donovani Imaging: THP-1 Host Macrophages. Assay plates (384-well) were prepared by adding 250nL of compound to each well. For single shot assay, the final compound concentration was 5 uM. […] Automated image analysis was performed with a script developed on Acapella High Content Imaging and Analysis Software (PerkinElmer). Output: THP-1 cell count were reported for each well.; assay type: functional, organism-based, Homo sapiens
[12] = test system: Trypanosoma brucei brucei; experiment: GSK_TCAKS: pIC50 Trypanosoma brucei viability assay using luminiscence. Assay plates (1536-well) were prepared. T. brucei cultures were harvested and counted in a CASY cell counter. A parasite suspension was prepared at a final concentration of 5 * 10^4 cells/mL in complete HMI9 medium and 6uL was dispensed to all wells containing compounds using a Multidrop Combi dispenser. 6uL of HMI9 media with 0.4% DMSO were dispensed to control columns. Plates were incubated for 24 h at 37C, 5% CO2 then tempered for 10 min at room temperature. ATP content was quantified by adding 4 uL of CellTiter-Glo Reagent (Promega) according to the manufacturer's instructions. Luminescence was measured using a ViewLux.; assay type: functional, organism-based; conditions: Lister 427, CASY

Structure (SMILES)	IC50 [1] [µM]	IC50 (Leishmania donovani [2]) [µM]	IC50 (Leishmania donovani [3]) [µM]	IC50 [4] [µM]	IC50 (Leishmania donovani [5]) [nM]	IC50 (Trypanosoma cruzi [6]) [µM]	IC50 (Trypanosoma cruzi [7]) [µM]	IC50 at 48 h [8] [µM]	IC50 (Trypanosoma cruzi [9]) [µM]	IC50 (Trypanosoma cruzi [10]) [µM]	IC50 (Leishmania donovani [11]) [µM]	IC50 [12] [µM]
CC(C)(C)Nc1nc(-c2ccccn2)nc2ccccc12	6.31	6.31	1.58	> 100	1260	1.26	0.316	20	1.26	2	15.8	6.31
Cc1ccc(NC(=O)c2ccc([N+](=O)[O-])s2)cc1S(=O)(=O)N1CCOCC1	0.251	2	3.16	20	2000	0.2	5.01	15.8	0.251	0.398	39.8	0.794
COc1ccc(C2C3CCCCC3(O)CCN2CC(=O)Nc2ccc(Cl)cc2Cl)cc1 (configuration not stated)	7.94	1.58	2.51	10	794	2.82	20	> 100	0.794	1.26	> 50.1	25.1
O=C(CN1CCC2(O)CCCCC2C1c1ccc2c(c1)OCO2)Nc1ccc(Cl)cc1Cl (configuration not stated)	12.6	5.01	3.16	12.6	1260	12.6	> 50.1	> 100	3.16	5.01	> 50.1	7.94
CC1CCCN(S(=O)(=O)c2ccc(C(=O)Nc3nc(-c4ccccn4)cs3)cc2)C1 (configuration not stated)	0.2	1.58	0.251	2.51	158	0.398	3.16	39.8	0.251	0.501	5.01	0.398
NC(=O)c1ccsc1NC(=O)c1ccc([N+](=O)[O-])s1	0.2	0.316	1.58	> 100	1260	0.0794	> 50.1	> 100	0.1	0.126	12.6	1.58
COc1ccc(OC)c(NC(=O)c2ccc([N+](=O)[O-])o2)c1	0.0158	25.1	31.6	10	15800	3.16	3.98	20	7.94	12.6	20	0.0631
COCCn1c(-c2ccc3c(c2)OCO3)cnc1NCc1ccccc1OC	20	12.6	10	5.01	5010	7.94	39.8	39.8	7.94	20	39.8	25.1
COCCn1c(-c2ccccc2)cnc1NCc1ccccc1OC	25.1	> 50.1	6.31	7.94	6310	14.1	> 50.1	20	6.31	15.8	50.1	15.8
O=C(Nc1nccs1)c1ccccc1Cn1cc([N+](=O)[O-])cn1	0.316	> 50.1	> 50.1	> 100	> 50100	> 50.1	> 50.1	> 100	> 50.1	> 50.1	> 50.1	0.501
c1ccc(CNc2cccc3ccncc23)cc1	25.1	10	7.94	0.1	5010	6.31	> 50.1	> 100	5.01	6.31	50.1	> 39.8
